Assay results published in PMC8603191, “Fragment-based design of selective GPCR ligands guided by free energy simulations” (Chemical communications (Cambridge, England), 2021).
Several values for one entry are separate records, joined by “and”; a condition that tells them apart may be missing. Equal entries are not always repeated.

Tests used:
human A2AAR = molecular target: T1, human A2AAR (Homo sapiens, UniProt P29274); assay: Radioligand binding assay, displacement of [3H]ZM241385; conditions: for Free energy of binding (ΔG) A2AAR: calculated from experimental binding affinities; for Ki: displacement of [3H]ZM241385, means ± SEM from 2-4 independent experiments; for ΔΔG Experimental A2AAR: based on Table S3
T1 construct: expressed in transfected cells; host or cells: HEK293 (membrane preparations)
Procedure: (§1) Radioligand binding assays. HEK293 cells expressing the human A1- or A2AARs were cultured in DMEM supplemented with 10% fetal bovine serum, 100 Units/ml penicillin, 100 µg/ml streptomycin, and 2 µmol/ml glutamine. Cells were detached from plates by scraping into cold PBS and centrifuged at 250 g for 5 min. The pellets were resuspended in ice-cold Tris HCl buffer (50 mM, pH 7.4) and then homogenized. After homogenization and suspension, cells were centrifuged at 1000 g for 10 min, and the pellet was discarded.
(§2) The suspension was then re-centrifuged at 20,000 g for 60 min at 4 °C. The pellets were resuspended in buffer containing 3 Units/ml adenosine deaminase and incubated at 37°C for 30 min. The aliquots of membrane preparations were stored at −80°C until the binding experiments. For displacement binding assays, membrane preparations (20 µg proteins/tube) were incubated at 25°C for 60 min with a final concentration of [3H]DPCPX (0.5 nM) and [3H]ZM241385 (1.0 nM) for A1- and A2AARs, respectively, in a mixture containing 50 µL of increasing concentrations of a test ligand in a total assay volume of 200 µL of 50 mM Tris HCl, pH 7.4, containing 10 mM MgCl2. Nonspecific binding was determined using 100 µM of XAC. The reaction was terminated by filtration with GF/B filters using a Brandel 24-channel harvester. Filters were placed in scintillation vials containing 5 ml of Hydrofluor scintillation buffer and counted using a PerkinElmer Tricarb 2810TR liquid scintillation counter. […]
(§3) Table S1. Binding affinities of compounds 1-10 based on displacement of [3H]DPCPX and [3H]ZM241385 at the A1AR and A2AAR, respectively.
(§4) Compound Substituent A1AR A2AAR index […]
(§5) a Ki values are expressed as means ± SEM from (2-4) independent experiments. b Free energy of binding (ΔG) calculated from experimental binding affinities (kcal/mol) / Number of heavy atoms (HA). The ligand efficiency (LE) = −ΔG/HA. c Values from Matricon et al.8
(§6) Table S3. Binding affinities of compounds 11-26 based on displacement of [3H]DPCPX and […]
(§7) a K values are expressed as means ± SEM from (2-4) independent experiments.
(§8) Free energy of binding (ΔG) calculated from experimental binding affinities (kcal/mol) / Number of heavy

human A1AR [1] = molecular target: T2, human A1AR (Homo sapiens, UniProt P30542); assay: Radioligand binding assay, displacement of [3H]DPCPX; conditions: for ligand efficiency (LE, binding free energy per heavy atom): A1AR; for Free energy of binding (ΔG) A1AR: calculated from experimental binding affinities
T2 construct: expressed in transfected cells; host or cells: HEK293 (membrane preparations)
T2 sequence (P30542 1-326): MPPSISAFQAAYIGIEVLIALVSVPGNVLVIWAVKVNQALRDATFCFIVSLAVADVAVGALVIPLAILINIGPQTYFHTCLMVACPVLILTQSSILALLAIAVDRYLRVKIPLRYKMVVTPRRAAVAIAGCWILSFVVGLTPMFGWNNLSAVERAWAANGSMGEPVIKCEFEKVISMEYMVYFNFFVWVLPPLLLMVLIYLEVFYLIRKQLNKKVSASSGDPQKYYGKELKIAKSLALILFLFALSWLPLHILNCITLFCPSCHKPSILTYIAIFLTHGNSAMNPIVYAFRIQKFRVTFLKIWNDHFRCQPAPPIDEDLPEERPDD
Procedure: as §1, §2, §3, §4, §5, §6, §7, §8

human A1AR [2] = assay: as above; conditions: A1AR versus A2AAR; for A1AR selectivity index: from Ki values; for selectivity for the A1AR: Fig. 1
Procedure: as §1, §2, §3, §4, §5, §6, §7, §8

[3] = compound 1 as reference, based on Table S1
[4] = displacement of [3H]DPCPX, means ± SEM from 2-4 independent experiments
[5] = radioligand binding, Fig. 1, Table S5
[6] = reference compound 5, based on Table S3
[7] = reference compound 9, based on Table S3

T1 sequence (P29274 whole entry): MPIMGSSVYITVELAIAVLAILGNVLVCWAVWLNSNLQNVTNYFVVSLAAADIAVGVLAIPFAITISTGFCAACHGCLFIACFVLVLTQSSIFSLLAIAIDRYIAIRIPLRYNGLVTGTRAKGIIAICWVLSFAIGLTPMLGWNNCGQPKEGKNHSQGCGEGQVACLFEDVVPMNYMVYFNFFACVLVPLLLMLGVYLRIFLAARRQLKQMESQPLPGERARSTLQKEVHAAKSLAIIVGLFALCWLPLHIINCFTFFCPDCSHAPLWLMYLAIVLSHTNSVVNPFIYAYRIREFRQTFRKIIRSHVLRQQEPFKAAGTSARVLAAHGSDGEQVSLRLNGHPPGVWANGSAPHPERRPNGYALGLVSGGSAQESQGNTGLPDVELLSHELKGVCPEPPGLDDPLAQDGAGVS

| Free energy of binding (ΔG) A2AAR (human A2AAR) [kcal/mol] | ligand efficiency (LE, binding free energy per heavy atom) (human A1AR [1]) [kcal mol^−1 HA^−1] | Free energy of binding (ΔG) A1AR (human A1AR [1]) [kcal/mol] | A1AR selectivity index (human A1AR [2]) | selectivity for the A1AR (human A1AR [2]) | Ki (human A2AAR) [µM] | ΔΔG Experimental A1AR (human A1AR [1]; [3]) | Ki (human A1AR [1]; [4]) | improvement of A1AR affinity (human A1AR [1]; compared to compound 1) [fold] | Ki (human A1AR [1]; [5]) [µM] | A2AAR selectivity (human A2AAR; A2AAR versus A1AR) [fold] | ΔΔG Experimental A2AAR (human A2AAR; reference compound 5) | ΔΔG Experimental A1AR (human A1AR [1]; [6]) | ΔΔG Experimental A2AAR (human A2AAR; reference compound 9) | ΔΔG Experimental A1AR (human A1AR [1]; [7]) | Structure (SMILES) |
| --- | --- | --- | --- | --- | --- | --- | --- | --- | --- | --- | --- | --- | --- | --- | --- |
| -5.6 | 0.52 | -6.8 | 7.1 | 7 fold | – | – | – | – | – | – | – | – | – | – | CC(=O)Nc1nc2ccccc2s1 [Compound 1] |
| -7.1 | – | -7.5 | 1.8 | – | 6.19 ± 3.43 | –0.7 ± 0.3 kcal/mol | 3.46 µM and 3.5 µM | – | – | – | – | – | – | – | CCC(=O)Nc1nc2ccccc2s1 [Compound 2] |
| -7.7 | – | -8.0 | 1.6 | – | 2.26 ± 0.36 | –1.2 ± 0.3 kcal/mol | 1.42 µM and 1.4 µM | – | – | – | – | – | – | – | CC(C)C(=O)Nc1nc2ccccc2s1 [Compound 3] |
| -7.5 | – | -7.7 | 1.4 | – | 3.27 ± 1.14 | –0.9 ± 0.2 kcal/mol | 2.35 µM and 2.4 µM | – | – | – | – | – | – | – | O=C(Nc1nc2ccccc2s1)C1CC1 [Compound 4] |
| -7.6 | – | -8.2 | 2.8 | – | 2.92 ± 0.72 | –1.4 ± 0.1 kcal/mol | 1.04 µM and 1 µM | – | – | – | – | – | – | – | CCC(CC)C(=O)Nc1nc2ccccc2s1 [Compound 6] |
| -7.5 | – | -8.2 | 3.2 | – | 3.41 ± 0.95 | –1.4 ± 0.2 kcal/mol | 1.08 µM and 1.1 µM | – | – | – | – | – | – | – | O=C(Nc1nc2ccccc2s1)C1CCCCC1 [Compound 7] |
| -7.8 | – | -8.7 | 4.0 | – | 1.94 ± 0.22 | –1.9 ± 0.3 kcal/mol | 0.484 ± 0.173 µM | – | – | – | – | – | – | – | O=C(Nc1nc2ccccc2s1)C12CC3CC(CC1C3)C2 [Compound 8] |
| -7.9 | 0.50 | -8.5 | 2.6 | – | 1.61 ± 0.11 | –1.7 ± 0.2 kcal/mol | – | – | 0.619 | – | – | – | – | – | O=C(Nc1nc2ccccc2s1)C1CCCC1 [Compound 9] |
| -8.8 | – | -8.5 | 0.6 | – | 0.386 ± 0.043 | –1.7 ± 0.1 kcal/mol | 0.67 ± 0.08 µM | – | – | 2 | – | – | – | – | O=C(Nc1nc2ccccc2s1)c1ccccc1 [Compound 10] |
| -6.3 | – | > -5.5 | < 0.3 | – | 25.8 ± 13.2 | – | > 100 µM | – | – | – | 1.7 ± 0.6 kcal/mol | > 3.5 kcal/mol | – | – | Cc1ccc2nc(NC(=O)C(C)(C)C)sc2c1 [Compound 11] |
| -7.1 | – | -8.2 | 6.5 | – | 6.75 ± 0.92 | – | 1.04 µM and 1 µM | – | – | – | 0.9 ± 0.1 kcal/mol | 0.8 ± 0.1 kcal/mol | – | – | Cc1cccc2sc(NC(=O)C(C)(C)C)nc12 [Compound 12] |
| -8.0 | – | -9.8 | 19.1 | – | 1.45 ± 0.6 | – | 0.076 ± 0.017 µM | – | – | – | 0.0 ± 0.5 kcal/mol | –0.8 ± 0.2 kcal/mol | – | – | Cc1ccc2sc(NC(=O)C(C)(C)C)nc2c1 [Compound 13] |
| -8.1 | – | -9.5 | 11.0 | – | 1.29 ± 0.28 | – | 0.117 ± 0.011 µM | – | – | – | –0.1 ± 0.2 kcal/mol | –0.5 ± 0.1 kcal/mol | – | – | CC(C)(C)C(=O)Nc1nc2cc(Cl)ccc2s1 [Compound 14] |
| -8.4 | 0.60 | -10.2 | 18.7 | 19 fold | 0.746 ± 0.149 | – | – | – | 0.04 | – | –0.4 ± 0.2 kcal/mol | –1.2 ± 0.2 kcal/mol | – | – | CC(C)(C)C(=O)Nc1nc2cc(Br)ccc2s1 [Compound 15] |
| -7.5 | – | -9.4 | 23.6 | – | 3.38 ± 0.53 | – | 0.143 ± 0.02 µM | – | – | – | 0.5 ± 0.4 kcal/mol | –0.4 ± 0.1 kcal/mol | – | – | CCc1ccc2sc(NC(=O)C(C)(C)C)nc2c1 [Compound 16] |
| -7.2 | – | -9.1 | 25.2 | – | 5.63 ± 0.74 | – | 0.223 ± 0.022 µM | – | – | – | 0.8 ± 0.1 kcal/mol | –0.2 ± 0.1 kcal/mol | – | – | CC(C)(C)C(=O)Nc1nc2cc(C#N)ccc2s1 [Compound 17] |
| -8.0 | – | -9.4 | 10.5 | – | 1.6 ± 0.51 | – | 0.152 ± 0.057 µM | – | – | – | 0.1 ± 0.5 kcal/mol | –0.4 ± 0.3 kcal/mol | – | – | COc1ccc2sc(NC(=O)C(C)(C)C)nc2c1 [Compound 18] |
| -9.2 | – | -9.4 | 1.5 | – | 0.199 ± 0.07 | – | 0.133 ± 0.01 µM | – | – | – | –1.2 ± 0.2 kcal/mol | –0.5 ± 0.1 kcal/mol | – | – | COc1cccc2sc(NC(=O)C(C)(C)C)nc12 [Compound 19] |
| -8.6 | – | -9.6 | – | 6 fold | 0.572 ± 0.064 | – | – | – | 0.095 | – | – | – | –0.6 ± 0.1 kcal/mol | –1.1 ± 0.1 kcal/mol | CC1(C(=O)Nc2nc3ccccc3s2)CCCC1 [Compound 20] |
| -9.1 | – | -10.5 | 11.0 | – | 0.252 ± 0.089 | – | 0.023 ± 0.006 µM | – | – | – | – | – | –1.1 ± 0.2 kcal/mol | –2.0 ± 0.2 kcal/mol | CC1(C(=O)Nc2nc3cc(Cl)ccc3s2)CCCC1 [Compound 21] |
| -8.6 | – | -9.9 | 9.8 | – | 0.561 ± 0.109 | – | 0.057 ± 0.015 µM | – | – | – | – | – | –0.6 ± 0.1 kcal/mol | –1.4 ± 0.2 kcal/mol | Cc1ccc2sc(NC(=O)C3(C)CCCC3)nc2c1 [Compound 23] |
| -7.8 | – | -9.6 | 22.4 | – | 2.15 ± 0.09 | – | 0.096 ± 0.013 µM | – | – | – | – | – | 0.2 ± 0.1 kcal/mol | –1.1 ± 0.1 kcal/mol | CCc1ccc2sc(NC(=O)C3(C)CCCC3)nc2c1 [Compound 24] |

| Structure (SMILES) | Free energy of binding (ΔG) A2AAR (human A2AAR) [kcal/mol] | ligand efficiency (LE, binding free energy per heavy atom) (human A1AR [1]) [kcal mol^−1 HA^−1] | Free energy of binding (ΔG) A1AR (human A1AR [1]) [kcal/mol] | A1AR selectivity index (human A1AR [2]) | selectivity for the A1AR (human A1AR [2]) | Ki (human A2AAR) [µM] | ΔΔG Experimental A1AR (human A1AR [1]; [3]) | Ki (human A1AR [1]; [4]) | improvement of A1AR affinity (human A1AR [1]; compared to compound 1) [fold] | Ki (human A1AR [1]; [5]) [µM] | A2AAR selectivity (human A2AAR; A2AAR versus A1AR) [fold] | ΔΔG Experimental A2AAR (human A2AAR; reference compound 5) | ΔΔG Experimental A1AR (human A1AR [1]; [6]) | ΔΔG Experimental A2AAR (human A2AAR; reference compound 9) | ΔΔG Experimental A1AR (human A1AR [1]; [7]) |
| --- | --- | --- | --- | --- | --- | --- | --- | --- | --- | --- | --- | --- | --- | --- | --- |
| CC(C)(C)C(=O)Nc1nc2ccccc2s1 [Compound 5] | -8.0 | 0.56 | -9.0 | 5.0 | not more selective for the A1AR compared to 1 | 1.43 ± 0.23 | –2.2 ± 0.2 kcal/mol | – | 39 | 0.285 | – | – | – | – | – |
